Literature values, collected in patent publication US5693668A, “Acetylcholinesterase inhibitors” (priority 1989, dated 1997).

Conditions: Bronaugh and Stewart, J. Pharm. Sci. 1984; cited from earlier work

## polyethylene glycol 20 Oleyl ether [PEG 20 oleyl ether]
  effect on integrity or permeation characteristics of the skin: not found to affect the integrity or the permeation characteristics of the skin
